Assays:
[1] = tested on: phosphorylation of extracellular signal-regulated kinase (ERK); conditions: preclinical studies; cited from earlier work
[2] = Phase I crossover study: plasma pharmacokinetics of sotorasib coadministered with rosuvastatin; format: in vivo, human; conditions: 960 mg sotorasib + 10 mg rosuvastatin, (range)
Description: Times of all PK samples were recorded to the nearest minute.

BCRP transporter = target: T1, BCRP transporter (Homo sapiens, UniProt Q9UNQ0); experiment: In vitro BCRP transporter inhibition; format: in vitro ADME
T1 sequence (Q9UNQ0 1-655): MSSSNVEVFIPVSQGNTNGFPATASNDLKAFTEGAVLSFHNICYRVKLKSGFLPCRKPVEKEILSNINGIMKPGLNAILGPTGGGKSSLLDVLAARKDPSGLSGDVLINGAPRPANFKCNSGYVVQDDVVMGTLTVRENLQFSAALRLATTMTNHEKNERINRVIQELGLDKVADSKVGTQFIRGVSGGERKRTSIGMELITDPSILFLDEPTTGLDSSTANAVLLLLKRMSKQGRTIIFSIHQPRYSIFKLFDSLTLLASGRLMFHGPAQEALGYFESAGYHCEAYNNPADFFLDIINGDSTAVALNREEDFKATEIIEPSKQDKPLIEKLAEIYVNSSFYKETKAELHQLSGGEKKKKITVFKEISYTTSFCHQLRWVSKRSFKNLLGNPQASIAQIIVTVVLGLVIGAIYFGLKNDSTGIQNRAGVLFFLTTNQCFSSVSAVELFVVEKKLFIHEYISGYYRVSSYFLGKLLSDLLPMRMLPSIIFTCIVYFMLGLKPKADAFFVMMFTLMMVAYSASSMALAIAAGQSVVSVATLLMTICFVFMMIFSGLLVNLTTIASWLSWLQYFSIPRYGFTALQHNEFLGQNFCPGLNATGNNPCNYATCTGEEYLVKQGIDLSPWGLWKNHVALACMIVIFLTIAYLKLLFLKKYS

[3] = Phase I crossover study: safety and tolerability (treatment-emergent adverse events); format: in vivo, human; conditions: for Treatment-emergent adverse events: healthy subjects; for Safety and tolerability: healthy male and female subjects
[4] = incidence !2%; cited from earlier work
[5] = cited from earlier work
[6] = tested on: plasma proteins, mostly albumin; conditions: reversible, independent of plasma concentrations; cited from earlier work
clinical = conditions: human, in vivo, 10 mg
Description: On Day 1, rosuvastatin was administered as a single 10 mg dose (1×10 mg tablet).
All subjects fasted overnight (at least 10 hours) and refrained from consuming water for 1 hour prior to dosing. Subjects refrained from consuming water until 2 hours postdose, excluding the amount of water consumed at dosing, and fasted until 4 hours postdose. At all other times during the study, subjects may have consumed water ad libitum.
Blood samples for determination of rosuvastatin plasma concentrations and PK parameters were collected at hour 0 and at hours 0.5, 1, 2, 3, 4, 5, 6, 8, 10, 12, 24, 36, 48, 72, 96, and 120 hours postdose following administration of rosuvastatin on Days 1 and 6.
Pharmacokinetic analysis was carried out using actual dose administered (mg) and actual postdose blood sampling times. When an actual time was not recorded, it was set to missing and excluded from PK analysis and statistics with sponsor approval.
The parameters Cmax, time of the last quantifiable plasma concentration (tlast), and tmax were obtained directly from the concentration-time profiles. For multiple peaks, the highest postdose concentration was reported as Cmax. In the case that multiple peaks were of equal magnitude, the earliest tmax was reported.

**Q.** Which results are given for C=CC(=O)N1CCN(c2nc(=O)n(-c3c(C)ccnc3C(C)C)c3nc(-c4c(O)cccc4F)c(F)cc23)[C@@H](C)C1 (atropisomer, axis not shown) [sotorasib]?
**A.** Inhibition of ERK phosphorylation [1]: inhibited nearly all detectable phosphorylation; tlast [2]: 48.0 (24.0-48.0) h; BCRP inhibition (BCRP transporter): inhibitor of BCRP transporter in vitro; Treatment-emergent adverse events ([3]; 960 mg sotorasib coadministered with 10 mg rosuvastatin): No treatment-emergent adverse events; Safety and tolerability ([3]; rosuvastatin 10 mg in combination with sotorasib 960 mg, single oral doses): safe and well tolerated

**Q.** With CC(C)c1nc(N(C)S(C)(=O)=O)nc(-c2ccc(F)cc2)c1/C=C/[C@@H](O)C[C@@H](O)CC(=O)O [rosuvastatin] as the molecule, how does the “Most commonly reported adverse reactions” value [4] read?
**A.** headache, myalgia, abdominal pain, asthenia, and nausea

**Q.** And the Elimination half-life ([5]; human, in vivo)?
**A.** approximately 19 hours

**Q.** What about the “Excreted in the feces (rosuvastatin and its metabolites)” value ([5]; human, in vivo) of the same molecule?
**A.** 90%

**Q.** What about the “Radiolabeled dose recovered as metabolite” value ([5]; human, in vivo) of the same molecule?
**A.** approximately 10%

**Q.** And the “Cmax and AUC dose dependence” value ([5]; oral administration)?
**A.** increased in approximate proportion to dose

**Q.** And the Absolute bioavailability ([5]; oral)?
**A.** approximately 20%

**Q.** And the Treatment-emergent adverse events ([3]; 10 mg rosuvastatin alone)?
**A.** No treatment-emergent adverse events

**Q.** And the Safety and tolerability ([3]; single oral dose rosuvastatin 10 mg alone)?
**A.** safe and well tolerated

**Q.** What about the “Bound to plasma proteins” value [6] of the same molecule?
**A.** 88%

**Q.** And the AUCinf (clinical; both)?
**A.** 36.2 (60.1) h*ng/mL

**Q.** And the “AUCinf GLSM” value (clinical; both)?
**A.** 0.0362 µg·h/mL

**Q.** And the AUClast GLSM (clinical; both)?
**A.** 0.0332 µg·h/mL

**Q.** What about the Cmax (clinical; both) of the same molecule?
**A.** 3.80 (57.8) ng/mL

**Q.** What about the “Cmax GLSM” value (clinical; both) of the same molecule?
**A.** 3.80 ng/mL

**Q.** And the half-life (clinical; both)?
**A.** 13.8 h

**Q.** What about the tmax (clinical; both) of the same molecule?
**A.** 3 h

**Q.** And the AUC(0-t) (clinical; both, po)?
**A.** 0.0332 µg·h/mL

**Q.** And the CL/F (clinical)?
**A.** 276 (60.1) L/h

From US20260166040A1 (AMGEN INC., priority 2022, published 2026)
